Target: T1, SMS2 (Homo sapiens, UniProt Q8NHU3)
T1 construct: CAO, Yu research team, National Protein Scientific Center (Shanghai); supplied by an outside laboratory, not a commercial vendor
T1 sequence (Q8NHU3 1-365): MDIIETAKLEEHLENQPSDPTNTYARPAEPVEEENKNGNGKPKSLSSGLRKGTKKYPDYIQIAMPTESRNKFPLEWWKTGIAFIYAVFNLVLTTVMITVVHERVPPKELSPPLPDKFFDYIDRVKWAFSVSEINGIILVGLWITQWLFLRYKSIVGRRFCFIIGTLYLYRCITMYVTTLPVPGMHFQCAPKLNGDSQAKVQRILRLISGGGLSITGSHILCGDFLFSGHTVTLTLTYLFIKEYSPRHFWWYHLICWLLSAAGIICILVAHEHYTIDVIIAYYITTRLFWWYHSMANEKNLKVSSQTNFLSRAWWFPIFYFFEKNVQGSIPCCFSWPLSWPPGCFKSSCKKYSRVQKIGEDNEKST
Experiment: SMS2 inhibitory activity in vitro, HPLC fluorescence quantitative detection (C6-NBD-ceramide to C6-NBD-SM)
Assay type: biochemical
Settings: 1 µM test compound; SMS2 pure enzyme; 37°C, 30 minutes; average of two measurements; read-out: Inhibition rate on SMS2 at C/µM 1
Text: • 1. Electro-thermostatic water bath, from Shanghai Yiheng Technology Co., Ltd.); • 2. Vortex Mixer, with model ID of XW-80A, from Shanghai Jingke Industrial Co., Ltd.; • 3. […] High Performance Liquid Chromatography Agilent 1100, equipped with a quaternary pump, vacuum degassing, and FLD fluorescence detector, from Agilent Technologies, Palo Alto, CA, USA; • 5. HPLC column COSMOSIL 5C18-MS-II (4.6mm I.D. X 250mm); • 6. […] The organic solvents used in the present disclosure were purchased from Shanghai National Reagent Company, wherein methanol was pure chromatography; water was ultra-pure water which is filtrated by Milli-Q pump, deionized and ultra-filtrated with 0.22 µm membrane; and other biological consumables were purchased from domestic companies; • 8. Preparation of test compound solutions: each test compound was accurately weighed and dissolved in an appropriate volume of DMSO to prepare a 10 mmol/L stock solution. The stock solution was then diluted with an appropriate volume of DMSO to achieve the desired working concentration; • 9. SMS2 pure enzyme, DDM solution and buffer solution were provided by CAO, Yu research team from National Protein Scientific Center (Shanghai).
79 µl of the diluted enzyme solution were transferred into a 1.5 mL EP tube, 1 µl of inhibitor DMSO solution were added thereto, vortexing for 15 seconds, followed by standing at room temperature for 5 minutes. 20 µl of a mixed solution of DMPC and C6-NBD-ceramide were added, vortexing for 15 seconds, and incubated at 37°C for 30 minutes. 200 µl of anhydrous ethanol were added to quench the reaction, vortexing for 15 seconds. 200 µl of the reaction solution were taken out and stored at 4°C and avoided light for HPLC detection.
The peak area values of A(sm) and A(ceramide) in the HPLC chromatogram corresponding to C6-NBD-SM and C6-NBD-Ceramide in the DMSO group and inhibitor group samples were analyzed and recorded, and the inhibition rate of the test compound was calculated according to the following formula. Inhibition rate = (Peak area values of DMSO group−Peak area values of Inhibitor group)/(Peak area values of DMSO group) × 100% [formula]

inhibition at 1 µM [%]	SMILES
78	Cc1cccc(C)c1COc1ccsc1C(=O)Nc1cccnc1 [1-60, 3-(2,6-dimethylbenzyloxy)-N-(pyridin-3-yl)thiophene-2-carboxamide]
80	COc1cccc(Cl)c1COc1ccsc1C(=O)Nc1cccnc1 [1-63, 3-(2-chloro-6-methoxybenzyloxy)-N-(pyridin-3-yl)thiophene-2-carboxamide]
86	O=C(Nc1cccnc1)c1sccc1OCc1csc2ccccc12 [1-66, 3-(benzo[b]thiophen-3-ylmethoxy)-N-(pyridin-3-yl)thiophene-2-carboxamide]
67	O=C(Nc1cccnc1)c1sccc1OCc1c(F)c(F)cc(F)c1F [1-67, 3-(2,3,5,6-tetrafluorobenzyloxy)-N-(pyridin-3-yl)thiophene-2-carboxamide]
95	O=C(Nc1cccnc1)c1sccc1OCc1ccccc1OCCc1ccccc1 [1-70, 3-(2-(phenylethoxy)benzyloxy)-N-(pyridin-3-yl)thiophene-2-carboxamide]
95	CCCCCCOc1cc(Cl)ccc1COc1ccsc1C(=O)Nc1cccnc1 [1-71, 3-(4-chloro-2-(hexyloxy)benzyloxy)-N-(pyridin-3-yl)thiophene-2-carboxamide]
90	CCCCCCCOc1cc(Cl)ccc1COc1ccsc1C(=O)Nc1cccnc1 [1-72, 3-(4-chloro-2-(heptyloxy)benzyloxy)-N-(pyridin-3-yl)thiophene-2-carboxamide]
90	CCCCCCOc1ccc(Cl)cc1COc1ccsc1C(=O)Nc1cccnc1 [1-73, 3-(5-chloro-2-(hexyloxy)benzyloxy)-N-(pyridin-3-yl)thiophene-2-carboxamide]
98	CCCCCCCOc1ccc(Cl)cc1COc1ccsc1C(=O)Nc1cccnc1 [1-74, 3-(5-chloro-2-(heptyloxy)benzyloxy)-N-(pyridin-3-yl)thiophene-2-carboxamide]
93	O=C(Nc1cccnc1)c1sccc1OCc1ccccc1OCCCCCCCl [1-76, 3-(2-(6-chlorohexyloxy)benzyloxy)-N-(pyridin-3-yl)thiophene-2-carboxamide]
97	CCCCCCOc1c(Cl)cccc1COc1ccsc1C(=O)Nc1cccnc1 [1-80, 3-(3-chloro-2-(hexyloxy)benzyloxy)-N-(pyridin-3-yl)thiophene-2-carboxamide]
73	CCc1ccccc1COc1ccsc1C(=O)Nc1cccnc1 [1-81, 3-(2-ethylbenzyloxy)-N-(pyridin-3-yl)thiophene-2-carboxamide]
80	CC(C)Oc1ccccc1COc1ccsc1C(=O)Nc1cccnc1 [1-82, 3-(2-isopropoxybenzyloxy)-N-(pyridin-3-yl)thiophene-2-carboxamide]
63	CCOC(=O)c1ccccc1COc1ccsc1C(=O)Nc1cccnc1 [1-84]
73	O=C(Nc1cccnc1)c1sccc1OCc1ccccc1OC(F)F [1-85, 3-(2-difluoro-methoxybenzyloxy)-N-(pyridin-3-yl)thiophene-2-carboxamide]
86	O=C(Nc1cccnc1)c1sccc1OCc1ccccc1Br [1-86, 3-(2-bromobenzyloxy)-N-(pyridin-3-yl)thiophene-2-carboxamide]
82	O=C(Nc1cccnc1)c1sccc1OCc1ccccc1I [1-87, 3-(yloxy)-N-(pyridin-3-yl)thiophene-2-carboxamide]
76	Cc1ccc(F)cc1COc1ccsc1C(=O)Nc1cccnc1 [1-88, 3-(5-fluoro-2-methylbenzyloxy)-N-(pyridin-3-yl)thiophene-2-carboxamide]
74	O=C(Nc1cccnc1)c1sccc1OCc1cc(Cl)ccc1Cl [1-89, 3-(2,5-dichlorobenzyloxy)-N-(pyridin-3-yl)thiophene-2-carboxamide]
50	O=C(Nc1cncc(F)c1)c1sccc1OCc1ccccc1 [1-92, 3-benzyloxy-N-(5-fluoropyridin-3-yl)thiophene-2-carboxamide]
52	O=C(Nc1cccnc1)c1sccc1OCc1ccccc1-c1ccccc1 [1-94, 3-[(1,1'-Biphenyl-2-yl)methoxy]-N-(pyridin-3-yl)thiophene-2-carboxamide]
80	O=C(Nc1cccnc1)c1sccc1OCc1cccc(C(F)(F)F)c1 [1-97, 3-(3-trifluoromethylbenzyloxy)-N-(pyridin-3-yl)thiophene-2-carboxamide]
50	COc1ccc(OC)c(COc2ccsc2C(=O)Nc2cccnc2)c1 [1-98, 3-(2,5-dimethoxybenzyloxy)-N-(pyridin-3-yl)thiophene-2-carboxamide]
60	O=C(Nc1cccnc1)c1cscc1OCc1ccccc1 [1-100, 4-(benzyloxy)-N-(pyridin-3-yl)thiophene-3-carboxamide]

SMILES	inhibition at 1 µM [%]
O=C(Nc1cccnc1)c1sccc1OCc1ccccc1OCCCCCl [1-75, 3-(2-(4-chlorobutoxy)benzyloxy)-N-(pyridin-3-yl)thiophene-2-carboxamide]	97
CCc1ccccc1COc1ccccc1C(=O)Nc1cccnc1 [12-1 (LY93), 2-(2-ethylbenzyloxy)-N-(pyridin-3-yl)benzamide, reference compound]	66

Same assay, conditions: 10 µM test compound; SMS2 pure enzyme; 37°C, 30 minutes; average of two measurements; read-out: Inhibition rate on SMS2 at C/µM 10

inhibition at 10 µM [%]	SMILES
50	O=C(Nc1ccccn1)c1sccc1OCc1ccccc1 [1-61, 3-benzyloxy-N-(pyridin-2-yl)thiophene-2-carboxamide]
57	CN(C(=O)c1sccc1OCc1ccccc1)c1cccnc1 [1-62, 3-benzyloxy-N-methyl-(pyridin-3-yl)thiophene-2-carboxamide]
51	O=C(Nc1cncnc1)c1sccc1OCc1ccccc1 [1-64, 3-benzyloxy-N-(pyrimidin-5-yl)thiophene-2-carboxamide]
61	O=C(Nc1cncs1)c1sccc1OCc1ccccc1 [1-65, 3-benzyloxy-N-(thiazol-5-yl)thiophene-2-carboxamide]
50	Cc1ncccc1NC(=O)c1sccc1OCc1ccccc1 [1-68, 3-benzyloxy-N-(2-methylpyridin-3-yl)thiophene-2-carboxamide]
65	Cc1ccncc1NC(=O)c1sccc1OCc1ccccc1 [1-69, 3-benzyloxy-N-(4-methylpyridin-3-yl)thiophene-2-carboxamide]
65	O=C(Nc1cccnc1)c1sccc1OCc1cccs1 [1-77, 3-(thiophen-2-ylmethoxy)-N-(pyridin-3-yl)thiophene-2-carboxamide]
59	O=C(Nc1cccnc1)c1sccc1OCc1ccsc1 [1-78, 3-(thiophen-3-ylmethoxy)-N-(pyridin-3-yl)thiophene-2-carboxamide]
60	CCCCCCOc1cccc(COc2ccsc2C(=O)Nc2cccnc2)c1 [1-79, 3-(3-(hexyloxy)benzyloxy)-N-(pyridin-3-yl)thiophene-2-carboxamide]
50	Cc1cncc(NC(=O)c2sccc2OCc2ccccc2)c1 [1-83, 3-benzyloxy-N-(5-methylpyridin-3-yl)thiophene-2-carboxamide]
56	O=C(Nc1cnccc1Cl)c1sccc1OCc1ccccc1 [1-91, 3-benzyloxy-N-(4-chloropyridin-3-yl)thiophene-2-carboxamide]
50	CCCOc1ccc(OCCC)c(COc2ccsc2C(=O)Nc2cccnc2)c1 [1-93, 3-(2,5-dipropoxybenzyloxy)-N-(pyridin-3-yl)thiophene-2-carboxamide]
50	CCCCOc1ccsc1C(=O)Nc1cccnc1 [1-95]
50	CCCCCCCCOc1ccsc1C(=O)Nc1cccnc1 [1-96, 3-octyloxy-N-(pyridin-3-yl)thiophene-2-carboxamide]
62	O=C(Nc1cccnc1)c1sccc1OCC12CC3CC(CC(C3)C1)C2 [1-99, 3-(adamantan-1-ylmethoxy)-N-(pyridin-3-yl)thiophene-2-carboxamide]
23	O=C(Nc1ccnnc1)c1sccc1OCc1ccccc1 [12-2, 3-benzyloxy-N-(pyridazin-4-yl)thiophene-2-carboxamide]

Same assay, conditions: SMS2 pure enzyme

SMILES	IC50 [nM]
CCc1ccccc1COc1ccccc1C(=O)Nc1cccnc1 [12-1 (LY93), 2-(2-ethylbenzyloxy)-N-(pyridin-3-yl)benzamide, reference compound]	285

Source: patent publication EP4768480A1, “ALKOXY THIOPHENE ACYL ARYLAMINE COMPOUNDS AND USE THEREOF” (priority 2024, dated 2025)
